Reference: BindingDB's records for PubMed 8394902 (Georgetown University, 1993)
Several values for one entry are separate records, joined by “and”; a condition that tells them apart may be missing. Identical values can stand only once.

Target: Gamma-aminobutyric acid receptor subunit alpha-1 (Rattus norvegicus, UniProt P62813)
Sequence (P62813 whole entry): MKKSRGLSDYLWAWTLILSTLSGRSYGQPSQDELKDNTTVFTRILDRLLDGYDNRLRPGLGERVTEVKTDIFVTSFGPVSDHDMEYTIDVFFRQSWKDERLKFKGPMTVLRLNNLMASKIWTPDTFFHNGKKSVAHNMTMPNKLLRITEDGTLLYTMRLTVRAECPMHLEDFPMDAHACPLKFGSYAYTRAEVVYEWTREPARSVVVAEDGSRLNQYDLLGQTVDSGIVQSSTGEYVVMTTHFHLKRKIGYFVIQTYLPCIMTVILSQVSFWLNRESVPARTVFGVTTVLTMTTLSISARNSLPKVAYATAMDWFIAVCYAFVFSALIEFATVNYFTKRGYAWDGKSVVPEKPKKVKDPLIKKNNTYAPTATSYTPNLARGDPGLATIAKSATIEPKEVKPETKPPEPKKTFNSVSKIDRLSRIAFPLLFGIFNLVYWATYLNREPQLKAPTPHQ

Cc1nnc2n1-c1ccc(Cl)cc1C(c1ccccc1)=NC2
Ki: 21 nM and 65 nM
